In assay [1] the target is T1, P2Y receptor (turkey erythrocyte membranes) (Meleagris gallopavo, UniProt P49652).
T1 construct: from tissue; host or cells: washed turkey erythrocytes, ghosts prepared by hypotonic lysis
The assay is described as follows: Stimulation of phospholipase C (inositol phosphate formation) in turkey erythrocyte membranes. Format: biochemical. The procedure:
Phospholipase C activity: Stimulation of inositol phosphate formation by compounds of the present invention was measured in turkey erythrocyte membranes as described by Harden et al., supra and Boyer et al., supra. The K0.5 values were averaged from 3-8 independently determined dose-response curves for each compound. Briefly, one ml of washed turkey erythrocytes was incubated in inositol-free medium (DMEM; Gibco) with 0.5-1 mCi of 2-[^3 H]myoinositol (20 Ci/mmol; American Radiolabeled Chemicals Inc., St. Louis, Mo.)for 18-24 h in a humidified atmosphere of 95% air 5% CO2 at 37° C. Erythrocyte ghosts were prepared by rapid lysis in hypotonic buffer (5 mM sodium phosphate, pH 7.4, 5 mM MgCl2, 1 mM EGTA) as described by Boyer et al., supra. Phospholipase C activity was measured in 25 μl of [^3 H]inositol-labeled ghosts (≈175 μg of protein, 200-500,000 cpm/assay) in a medium containing 424 μM CaC12, 0.91 mM MgSO4, 2 mM EGTA, 115 mM KCl, 5 mM KH2 PO4, and 10 mM Hepes, pH 7.0. Assay (100 μl or 200 μl final volume) contained 1 μM GTPγS and the indicated concentrations of nucleotide analogs. Ghosts were incubated at 30° C. for 5 min, and total [^3 H]inositol phosphates were quantitated after purification by anion exchange chromatography according to Harden et al. (supra) and Boyer et al. (supra).
(§1) Phospholipase C activity and muscle relaxation/contraction effects were assessed using the methods recited in Example 3. In FIGS. 10-12, which present the result of assays of phospholipase C activity in turkey erythrocyte membranes, the x-axis is marked in units of the log of the molar concentration of the putative P2Y receptor agonist tested and the y-axis is marked in units of the percentage of maximum production of [^3 H]-inositol phosphate generated. In FIG. 13, the x-axis is marked in units of the negative log of the molar concentration of applied putative P2Y receptor agonists and the y-axis is marked in units of the percentage relaxation of the 50 nM carbachol-induced contraction of guinea pig taenia coli. In FIG. 14, the x-axis is also marked in units of the negative log of the molar concentration of applied putative P2Y receptor agonists and the y-axis is marked in units of the percentage relaxation of the 1 μM noradrenalin-induced contraction of rabbit aorta endothelium. In FIGS. 15-16, the x-axis is marked in units of the negative log of the molar concentration of applied putative p^2X receptor agonists and the y-axis is marked in units of the percentage contraction relative to a standard dose of KCl (i.e., 60 mM), as assessed in guinea pig isolated urinary bladder detrussor muscle (FIG. 15) and guinea pig isolated vas deferens (FIG. 16).

The target in assay [2] is P2Y receptor (mesenteric artery). As to the kind of experiment: Relaxation of rabbit mesenteric artery. As to conditions: log molar units.
The target in assay [3] is T2, P2Y receptor (taenia coli) (Cavia porcellus, UniProt P59902).
T2 construct: Relaxant responses mediated via P2Y receptors were examined in guinea pig taenia coli; from tissue; host or cells: guinea pig taenia coli (carbachol-contracted)
The assay is described as follows: Relaxation of carbachol-contracted guinea pig taenia coli.
Source text: Muscular relaxation/contraction: Relaxant responses mediated via P2Y receptors were examined in guinea pig taenia coli, rabbit aorta, and rabbit mesenteric artery, as described by Hoyle et al. (Br. J. Pharmacol., 107, 367-374 (1992a)), Burnstock et al., (Br. J. Pharmacol., 90, 383-391 (1987a)), and Rubino et al., (Eur. J. Pharmacol., 212, 237-240 (1992)). Contractile responses mediated via P2X receptors were examined in the guinea pig urinary bladder and vas deferens, and rabbit saphenous artery, also using standard methods (see Hoyle et al., supra., 1992; Hoyle et al., Br. J. Pharmacol., 99, 617-621 (1990); and Burnstock et al., Br. J. Pharmacol., 90, 111-120 (1987b)).
Muscular relaxation assays were performed as recited in Example 3. […] All curves are the mean of two determinations except for 5'-ATP (n=38), 2-hexylthio-ATP (n=4), 2-(5-hexenyl)thio-ATP (n=3), and 2-(2-4-nitrophenylethyl)thio-AMP (n=5). […] The pD2 value for 2-methylthio-ATP is 8.0±0.15, as reported by Hoyle et al., in Receptor Data for Biological Experiments, (H. N. Doods and J. C. A. Van Meel, eds., 1992b) at pp. 54-61.
as §1

Assay [4] concerns P2Y receptor (aorta endothelium). The assay is described as follows: Relaxation of noradrenalin-contracted rabbit aorta. The conditions noted are these: rabbit aorta; log molar units.
The mark [5] stands for this setting: turkey erythrocyte membranes, mean ± S.E.M. for at least 2 determinations, read-out: phosphatidyl inositol metabolism (K0.5, nM) erythrocyte.
[6] abbreviates: turkey erythrocyte membranes, read-out: K0.5.

SMILES strings stand for the structures. “Also recorded” adds a separate entry of the source. Like-named read-outs stand apart in the source and are kept apart here.

T2 sequence (P59902 whole entry): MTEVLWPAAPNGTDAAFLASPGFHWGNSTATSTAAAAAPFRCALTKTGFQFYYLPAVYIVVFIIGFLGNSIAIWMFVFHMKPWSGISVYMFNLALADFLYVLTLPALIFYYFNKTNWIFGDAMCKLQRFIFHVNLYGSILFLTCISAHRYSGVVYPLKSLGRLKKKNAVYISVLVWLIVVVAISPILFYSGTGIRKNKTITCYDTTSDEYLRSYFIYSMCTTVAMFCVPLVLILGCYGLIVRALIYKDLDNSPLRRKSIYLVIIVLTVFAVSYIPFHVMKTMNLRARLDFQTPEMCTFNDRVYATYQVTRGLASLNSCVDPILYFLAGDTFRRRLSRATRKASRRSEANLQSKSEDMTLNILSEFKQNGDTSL
T1 sequence (P49652 whole entry): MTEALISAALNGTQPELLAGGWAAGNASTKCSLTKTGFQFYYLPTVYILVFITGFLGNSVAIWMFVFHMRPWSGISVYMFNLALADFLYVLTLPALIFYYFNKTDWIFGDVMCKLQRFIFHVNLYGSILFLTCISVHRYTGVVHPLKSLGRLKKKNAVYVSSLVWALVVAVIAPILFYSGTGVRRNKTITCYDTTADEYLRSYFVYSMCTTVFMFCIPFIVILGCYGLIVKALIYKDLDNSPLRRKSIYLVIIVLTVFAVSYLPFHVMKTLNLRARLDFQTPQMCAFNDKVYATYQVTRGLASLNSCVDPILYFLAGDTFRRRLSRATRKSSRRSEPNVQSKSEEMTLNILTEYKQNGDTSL

Take `CCSCCSc1nc(N)c2ncn([C@@H]3O[C@H](COP(=O)(O)O)[C@@H](O)[C@H]3O)c2n1`: the EC50 in assay [1] (setting [5]) was 1000 nM.

With `Cn1c(=O)c2c(ncn2C)n(CCOP(=O)(O)OP(=O)(O)OP(=O)(O)O)c1=O` [1,7-dimethyl-3-(2-hydroxyethyl)xanthine triphosphate], in assay [1] (setting [6]), the EC50 is 100000 nM.

As for `Nc1ccc(CCSc2nc(N)c3ncn([C@@H]4O[C@H](COP(=O)(O)OP(=O)(O)OP(=O)(O)O)[C@@H](O)[C@H]4O)c3n2)cc1` [2-(2-p-Aminophenylethyl)-thio-ATP, 2-[2-(p-Aminophen)ethylthio]adenosine 5'-triphosphate], the “activity/potency in words, turkey erythrocyte” value in assay [1] (turkey erythrocyte membranes) was “at least two orders of magnitude more potent”. Moreover, the values for the EC50 in assay [1] (setting [5]) and in assay [1] (setting [6]) were 1.53 ± 0.21 nM and 5 to 30 nM, respectively.

As for `Nc1nc(SCCc2ccc([N+](=O)[O-])cc2)nc2c1ncn2[C@@H]1O[C@H](COP(=O)(O)O)[C@@H](O)[C@H]1O` [2-(2-p-Nitrophenylethyl)-thio-AMP, 2-[2-(p-nitrophen)ethylthio]adenosine 5'-monophosphate], in assay [2], the “relaxation pD2, mes. artery” value was 5.0. Moreover, the “activity/potency in words, taenia coli” value in assay [3] (guinea pig taenia coli) was “slightly less potent than ATP”. The “relaxation pD2, taenia coli” value in assay [3] (guinea pig taenia coli, log molar units) was determined as 6.5. The “relaxation pD2, aorta” value in assay [4] is recorded as 6.1. Besides, the EC50 in assay [1] (setting [5]) was 3000 ± 1200 nM.

Turning to `NCCCCCCCSc1nc(N)c2ncn([C@@H]3O[C@H](COP(=O)(O)OP(=O)(O)OP(=O)(O)O)[C@@H](O)[C@H]3O)c2n1` [2-(7-Aminoheptyl)thio-ATP, 2-(7-Aminoheptylthio)-adenosine-5'-triphosphate], the EC50 in assay [1] (setting [5]) was determined as 72.8 ± 46.6 nM.

For `Nc1nc(SCCCCCCCS)nc2c1ncn2[C@@H]1O[C@H](COP(=O)(O)OP(=O)(O)OP(=O)(O)O)[C@@H](O)[C@H]1O` [2-(7-Thioheptyl)thio-ATP, 2-(7-Thioheptylthio)-adenosine-5'-triphosphate], in assay [1] (setting [5]), the EC50 was determined as 773 ± 328 nM.

Consider `Nc1nc(SC2CCCCC2)nc2c1ncn2[C@@H]1O[C@H](COP(=O)(O)OP(=O)(O)OP(=O)(O)O)[C@@H](O)[C@H]1O` [2-Cyclohexylthio-ATP, 2-cyclohexylthio-ATP], for which, in assay [2], the “relaxation pD2, mes. artery” value turned out to be 5.9. For the same compound, the EC50 in assay [3] is 0.0158 µM; in assay [1] (setting [5]), 24 ± 4 nM; in assay [1] (setting [6]) it was 5 to 30 nM. For the same compound, the “relaxation pD2, aorta” value in assay [4] came to 6.3. In addition, the “activity/potency in words, turkey erythrocyte” value in assay [1] (turkey erythrocyte membranes) was “at least two orders of magnitude more potent”.

For the compound `Nc1nc(SCCc2ccccc2)nc2c1ncn2[C@@H]1O[C@H](COP(=O)(O)OP(=O)(O)OP(=O)(O)O)[C@@H](O)[C@H]1O` [2-Phenylethylthio-ATP, 2-phenylethylthio-ATP], in assay [2], the “relaxation pD2, mes. artery” value came to 6.2. Besides, the EC50 in assay [3] is 0.0794 µM; in assay [1] (setting [5]), 30 ± 17 nM; in assay [1] (setting [6]), 5 to 30 nM. In addition, the “relaxation pD2, aorta” value in assay [4] worked out at 6.5. In assay [1] (turkey erythrocyte membranes), the “activity/potency in words, turkey erythrocyte” value is listed as “at least two orders of magnitude more potent”.

For the compound `N#CSCCCCCCCSc1nc(N)c2ncn([C@@H]3O[C@H](COP(=O)(O)OP(=O)(O)OP(=O)(O)O)[C@@H](O)[C@H]3O)c2n1` [2-[(7-Thiocyanatoheptyl)thio]-ATP, 2-(7-Thiocyanatoheptylthio)-adenosine-5'-triphosphate], in assay [1] (turkey erythrocyte membranes), the “activity/potency in words, turkey erythrocyte” value was “at least two orders of magnitude more potent”. The EC50 in assay [1] (setting [5]) is 25.9 ± 10 nM; in assay [1] (setting [6]) it was 5 to 30 nM.

With `CCCCCCCCCCSc1nc(N)c2ncn([C@@H]3O[C@H](COP(=O)(O)O)[C@@H](O)[C@H]3O)c2n1` [2-decylthio AMP], the EC50 in assay [1] (setting [5]) is 214 ± 2 nM.

As for `CCCCCCCSc1nc(N)c2ncn([C@@H]3O[C@H](COP(=O)(O)O)[C@@H](O)[C@H]3O)c2n1` [2-hepylthio AMP], the EC50 in assay [1] (setting [5]) was 1000 nM.

`CCCCCCSc1nc(N)c2ncn([C@@H]3O[C@H](COP(=O)(O)O)[C@@H](O)[C@H]3O)c2n1` [2-hexylthio AMP]: the EC50 in assay [1] (setting [5]) is 58 ± 5 nM.

As for `CCCCCCCCSc1nc(N)c2ncn([C@@H]3O[C@H](COP(=O)(O)O)[C@@H](O)[C@H]3O)c2n1` [2-octylthio AMP], in assay [1] (setting [5]), the EC50 came to 295 ± 6 nM.

On to `CCCCCSc1nc(N)c2ncn([C@@H]3O[C@H](COP(=O)(O)O)[C@@H](O)[C@H]3O)c2n1` [2-pentylthio AMP], for which the EC50 in assay [1] (setting [5]) was found to be 10000 nM.

As to `CCCCCCCCCCCSc1nc(N)c2ncn([C@@H]3O[C@H](COP(=O)(O)O)[C@@H](O)[C@H]3O)c2n1` [2-undecylthio AMP], the EC50 in assay [1] (setting [5]) is 1000 nM.

Turning to `Nc1ncnc2c1ncn2[C@@H]1O[C@H](COP(=O)(O)OP(O)(O)=S)[C@@H](O)[C@H]1O` [ADP-β-S, reference compound], in assay [2], the “relaxation pD2, mes. artery” value was found to be 5.8. The “activity/potency in words, taenia coli” value in assay [3] (guinea pig taenia coli) is reported as “not in the taenia coli; also recorded: no greater affinity for the P2Y receptor in the guinea-pig taenia coli than ATP or ADP”. The “relaxation pD2, aorta” value in assay [4] is listed as 5.8. For the same compound, the “times more potent than ADP, turkey erythrocyte” value in assay [1] (relative to ADP) is listed as around 400 times. Also, the “times more potent than ATP, turkey erythrocyte” value in assay [1] (relative to ATP) is reported as “approximately 140 times”. For the same compound, the “activity/potency in words, turkey erythrocyte” value in assay [1] (turkey erythrocyte membranes) is “enhanced potency relative to the parent compound; also recorded: a very high affinity for the turkey erythrocyte P2Y receptor”. Moreover, the EC50 in assay [1] (setting [5]) is 96 ± 27 nM.

`Nc1ncnc2c1ncn2[C@@H]1O[C@H](COP(=O)(O)OP(=O)(O)OP(O)(O)=S)[C@@H](O)[C@H]1O` [ATP-γ-S, reference compound]: in assay [2], the “relaxation pD2, mes. artery” value is given as 5.8. In assay [3] (guinea pig taenia coli), the “activity/potency in words, taenia coli” value was “not in the taenia coli”. Further, the “relaxation pD2, aorta” value in assay [4] turned out to be 5.7. Moreover, the “activity/potency in words, turkey erythrocyte” value in assay [1] (turkey erythrocyte membranes) was “enhanced potency relative to the parent compound”. The EC50 in assay [1] (setting [5]) was found to be 1260 ± 380 nM.

With `Nc1ncnc2c1ncn2[C@@H]1O[C@H](CO)[C@@H](O)[C@H]1O` [Adenosine, reference compound], the “relaxation pD2, mes. artery” value in assay [2] worked out at 6.0. In addition, the EC50 in assay [3] is 126 µM; in assay [1] (at 10^-5 M, read-out: phosphatidyl inositol metabolism (K0.5) erythrocyte, class symbol), above 10000 nM. For the same compound, the “relaxation pD2, aorta” value in assay [4] came out at 5.7.

On to `O=P(O)(O)OP(=O)(O)OP(=O)(O)OC[C@H]1O[C@@H](n2cnc3c(NCCc4ccccc4)ncnc32)[C@H](O)[C@@H]1O` [N^6 -phenylethyl ATP, N^6 -phenylethyl-ATP], for which the EC50 in assay [1] (setting [5]) was determined as 7000 nM.

On to `Cn1c(=O)c2c(ncn2CCOP(=O)(O)OP(=O)(O)OP(=O)(O)O)n(C)c1=O` [β-Hydroxyethyltheophylline triphosphate], for which, in assay [1] (setting [6]), the EC50 was 26900 nM.

(Values after patent US5620676A, “Biologically active ATP analogs” (priority 1995, dated 1997).)
